Assays:
TNK1 [1] = target: T1, TNK1 (Homo sapiens, UniProt Q13470); assay: RBC HotSpot Kinase Assay; format: biochemical; parameters: purchased Reaction Biology Corp., Malvern, Pa; conditions: ATP 10 μM
T1 sequence (Q13470 1-666): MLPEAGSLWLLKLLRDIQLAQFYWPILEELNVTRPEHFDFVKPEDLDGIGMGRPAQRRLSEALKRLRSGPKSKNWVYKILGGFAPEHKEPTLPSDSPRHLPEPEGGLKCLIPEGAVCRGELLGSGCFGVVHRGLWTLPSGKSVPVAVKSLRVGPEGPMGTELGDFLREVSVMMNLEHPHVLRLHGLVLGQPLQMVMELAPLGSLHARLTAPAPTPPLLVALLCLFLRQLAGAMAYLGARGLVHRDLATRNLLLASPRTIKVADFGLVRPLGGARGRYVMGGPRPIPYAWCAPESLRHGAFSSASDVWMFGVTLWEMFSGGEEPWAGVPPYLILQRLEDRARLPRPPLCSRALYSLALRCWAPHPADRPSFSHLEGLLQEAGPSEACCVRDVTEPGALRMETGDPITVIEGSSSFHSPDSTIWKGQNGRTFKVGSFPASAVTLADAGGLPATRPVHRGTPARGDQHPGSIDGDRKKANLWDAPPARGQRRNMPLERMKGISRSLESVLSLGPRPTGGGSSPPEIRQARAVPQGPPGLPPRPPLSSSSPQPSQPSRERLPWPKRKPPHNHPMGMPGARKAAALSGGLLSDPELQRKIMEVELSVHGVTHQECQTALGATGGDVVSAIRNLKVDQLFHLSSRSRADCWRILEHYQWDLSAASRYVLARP
Description: The RBC HotSpot Kinase assay (Reaction Biology Corp., Malvern, Pa.) was used to evaluate the ability of test compounds to modulate (e.g., inhibit) the enzymatic activity of human TNK1 (UniProt Accession No. Q13470) in the following reaction:
Reagent: Base Reaction buffer; 20 mM Hepes (pH 7.5), 10 mM MgCl2, 1 mM EGTA, 0.02% Brij35, 0.02 mg/ml BSA, 0.1 mM Na3VO4, 2 mM DTT, 1% DMSO. Required cofactors were added individually to each kinase reaction.
Compound handling: Test compounds were dissolved in 100% DMSO to specific concentration. The serial dilution was conducted by Integra Viaflo Assist in DMSO.
1. Prepared substrate (peptide substrate, poly[Glu:Tyr] (4:1), 0.2 mg/ml; ATP 10 μM) in freshly prepared Reaction Buffer;
2. Delivered any required cofactors to the substrate solution;
3. Delivered kinase (TNK1) into the substrate solution and gently mixed;
4. Delivered compounds in 100% DMSO into the kinase reaction mixture by Acoustic technology (Echo550; nanoliter range), incubated for 20 minutes at room temperature;
5. Delivered ^33P-ATP (specific activity 10 μCi/μl) into the reaction mixture to initiate the reaction;
6. Incubated for 2 hours at room temperature;
7. Detected radioactivity by filter-binding method;
8. Kinase activity data were expressed as the percent remaining kinase activity in test samples compared to vehicle (dimethyl sulfoxide) reactions. IC50 values and curve fits were obtained using Prism (GraphPad Software).

[2] = test system: phospho-STAT5 in L540 cells; assay: In vitro pSTAT5 assay (ELISA) in L540 cells; format: cell-based; conditions: Homo sapiens, L-540, 24 hours, normalized to cell viability, read-out: P-STAT5 Assay IC50
Description: The L540 cell line harbors a truncating mutation in the C-terminal regulatory region of the protein. As a consequence, TNK1 in L540 cells is constitutively active in phosphorylating key proteins, including STAT5. In TNK1 wild-type conditions (e.g., K562 CML cells), STAT5 phosphorylation is achieved in a TNK1-independent fashion. As such, reductions in phospho-STAT5 signal specific to the L540 cells are a good readout of TNK1 inhibitor function.
Methods: The in vitro pSTAT5 assay was performed with STAT5 AB (pY964/699) SimpleStep ELISA Kit (Abcam No. ab176656) according to the manufacturer's protocol. Briefly, L540 cells were grown in RPMI1640 media under standard culture conditions (10% FBS with penicillin/streptomycin). To assess test compound effects, cells were plated in 96 well plates (250,000 cells/mL) and allowed to grow overnight. Cells were subsequently treated with varying concentrations of test compound for 24 hours, before being harvested and interrogated with the STAT5 AB (pY964/699) SimpleStep ELISA Kit according to the manufacturer's protocol. Phospho-STAT5 signal was normalized to cell viability, as assessed by the CellTiter-Glo assay (Promega, Cat. No. G7570) on treated cells. TNK1 inhibitor IC50s were determined using Graphpad Prism software on normalized phospho-STAT5 measurements.

TNK1 [3] = target: T1, TNK1; assay: TNK1 NanoBRET target engagement assay (HEK293); format: cell-based; parameters: host or cells: HEK293; conditions: HEK293 cells, 2 hours; read-out: NanoBRET TE Assay (HEK293) IC50
Description: The NanoBRET target engagement (TE) assay (Promega, Madison, Wis.) enables the interrogation of the displacement of a tracer compound in the active site of a recombinant kinase by a test compound in the intracellular setting. The assay enables simultaneous testing of permeability, solubility, and kinase inhibition, and tests the specific interaction of test agents with a kinase of interest, here, TNK1. The assay is based on the principle of bioluminescence resonance energy transfer (BRET). In the assay, a plasmid-encoded, luciferase-tagged form of TNK1 is transfected into cells. A tracer compound is tagged with a fluorophore that fluoresces when bound to the TNK1 protein. Readout is luminescence and fluorescence. Test compounds show activity by displacing the tracer, thus disrupting BRET.
Methods: The TNK1 NanoBRET TE assays were performed according to the manufacturer's protocol. Briefly, Nanoluc-TNK1 Fusion Vector (Promega, Madison, Wis., Cat. No. NV2181) was transfected into HEK293 cells in bulk (8×10^6 cells in a T175 flask). Up to 30 hours post-transfection, cells were harvested by trypsinization, resuspended at a concentration of 2×10^5 cells/mL, and seeded in 96-well plates at 85 μL/well. A test compound and the K5 tracer were added to each well, and the cells were incubated for 2 hours. Luminescence ([…]) and fluorescence ([…]) were measured to determine a BRET ratio. IC50 values were determined from the BRET ratios using the Graphpad Prism software (GraphPad Software, San Diego, Calif.).

COc1cc(N2CCN(C)CC2)c(C)cc1Nc1ncc(C(C)=O)c(Nc2cccnc2N(C)C)n1 [Example No. 12, 1-(4-((2-(dimethylamino)pyridin-3-yl)amino)-2-((2-methoxy-5-methyl-4-(4-methylpiperazin-1-yl)phenyl)amino)pyrimidin-5-yl)ethan-1-one]
IC50 (TNK1 [1]): 15 to 50 nM | IC50 [2]: > 50 nM | IC50 (TNK1 [3]): > 1000 nM

COc1cc(N2CCN(C)CC2)c(C)cc1Nc1ncc(Cl)c(Nc2cccnc2N2CCCCC2)n1 [Example No. 14, 5-chloro-N2-(2-methoxy-5-methyl-4-(4-methylpiperazin-1-yl)phenyl)-N4-(2-(piperidin-1-yl)pyridin-3-yl)pyrimidine-2,4-diamine]
IC50 (TNK1 [1]): 15 to 50 nM | IC50 [2]: > 50 nM | IC50 (TNK1 [3]): > 1000 nM

COc1cc(N2CCN(C)CC2)c(C)cc1Nc1ncc(Cl)c(Nc2cccnc2N2CCCCC2=O)n1 [Example No. 15, 1-(3-((5-chloro-2-((2-methoxy-5-methyl-4-(4-methylpiperazin-1-yl)phenyl)amino)pyrimidin-4-yl)amino)pyridin-2-yl)piperidin-2-one]
IC50 (TNK1 [1]): 15 to 50 nM | IC50 [2]: > 50 nM | IC50 (TNK1 [3]): 150 to 1000 nM

COc1cc(N2CCN(C)CC2)ccc1Nc1ncc(Cl)c(Nc2cccnc2N(C)C)n1 [Example No. 16, 5-chloro-N4-(2-(dimethylamino)pyridin-3-yl)-N2-(2-methoxy-4-(4-methylpiperazin-1-yl)phenyl)pyrimidine-2,4-diamine]
IC50 (TNK1 [1]): < 5 nM | IC50 [2]: 5 to 50 nM | IC50 (TNK1 [3]): 150 to 1000 nM

CN1CCN(c2ccc(Nc3ncc(Cl)c(Nc4cccnc4N(C)C)n3)c3ccccc23)CC1 [Example No. 17, 5-chloro-N4-(2-(dimethylamino)pyridin-3-yl)-N2-(4-(4-methylpiperazin-1-yl)naphthalen-1-yl)pyrimidine-2,4-diamine]
IC50 (TNK1 [1]): 5 to 15 nM | IC50 [2]: > 50 nM | IC50 (TNK1 [3]): > 1000 nM

COc1cc(N2CCN(C)CC2)c(Cl)cc1Nc1ncc(Cl)c(Nc2cccnc2N2CCCCC2=O)n1 [Example No. 19, 1-(3-((5-chloro-2-((5-chloro-2-methoxy-4-(4-methylpiperazin-1-yl)phenyl)amino)pyrimidin-4-yl)amino)pyridin-2-yl)piperidin-2-one]
IC50 (TNK1 [1]): 5 to 15 nM | IC50 [2]: 5 to 50 nM | IC50 (TNK1 [3]): 150 to 1000 nM

COc1cc(N2CCN(C)CC2)c(C)cc1Nc1ncc(C#N)c(Nc2cccnc2N(C)C)n1 [Example No. 20]
IC50 (TNK1 [1]): 5 to 15 nM | IC50 (TNK1 [3]): 150 to 1000 nM

COc1cc(N2CCN(C)CC2)c(Cl)cc1Nc1ncc(Br)c(Nc2cccnc2N(C)C)n1 [Example No. 22, 5-bromo-N-(5-chloro-2-methoxy-4-(4-methylpiperazin-1-yl)phenyl)-N-(2-(dimethylamino)pyridin-3-yl)pyrimidine-2,4-diamine]
IC50 (TNK1 [1]): < 5 nM

COc1cc(N2CCN(C)CC2)c(Cl)cc1Nc1ncc(Br)c(Nc2cccnc2N2CCCC2=O)n1 [Example No. 23, 1-(3-((5-bromo-2-((5-chloro-2-methoxy-4-(4-methylpiperazin-1-yl)phenyl)amino)pyrimidin-4-yl)amino)pyridin-2-yl)pyrrolidin-2-one]
IC50 (TNK1 [1]): < 5 nM

CN1CCN(c2c(Cl)cc(Nc3ncc(Cl)c(Nc4cccnc4N4CCCC4=O)n3)c3cccnc23)CC1 [Example No. 24, 1-(3-((5-chloro-2-((7-chloro-8-(4-methylpiperazin-1-yl)quinolin-5-yl)amino)pyrimidin-4-yl)amino)pyridin-2-yl)pyrrolidin-2-one]
IC50 (TNK1 [1]): < 5 nM

COc1cc(N2CCN(C)CC2)c(C)cc1Nc1ncc(Br)c(Nc2ccncc2N(C)C)n1 [Example No. 25, 5-bromo-N-(3-(dimethylamine)pyridin-4-yl)-N-(2-methoxy-5-methyl-4-(4-methylpiperazin-1-yl)phenyl)pyrimidine-2,4-diamine]
IC50 (TNK1 [1]): < 5 nM

CN1CCN(c2c(Cl)cc(Nc3ncc(Cl)c(Nc4cccnc4N4CCCC4=O)n3)c3c2CCCO3)CC1 [Example No. 26, 1-(3-((5-chloro-2-((6-chloro-5-(4-methylpiperazin-1-yl)chroman-8-yl)amino)pyrimidin-4-yl)amino)pyridin-2-yl)pyrrolidin-2-one]
IC50 (TNK1 [1]): < 5 nM

[2H]C([2H])([2H])N(c1ncccc1Nc1nc(Nc2cc(C)c(N3CCN(C)CC3)cc2OC)ncc1Br)C([2H])([2H])[2H] [Example No. 27, N^4-(2-(bis(methyl-d3)amino)pyridin-3-yl)-5-bromo-N-(2-methoxy-5-methyl-4-(4-methylpiperazin-1-yl)phenyl)pyrimidine-2,4-diamine]
IC50 (TNK1 [1]): < 5 nM

COc1cc(N2CCNCC2)c(Cl)cc1Nc1ncc(Cl)c(Nc2cccnc2N2CCCC2=O)n1 [Example No. 28, 1-(3-((5-chloro-2-((5-chloro-2-methoxy-4-(piperazin-1-yl)phenyl)amino)pyrimidin-4-yl)amino)pyridin-2-yl)pyrrolidin-2-one]
IC50 (TNK1 [1]): < 5 nM

[2H]C([2H])([2H])N1CCN(c2cc(OC)c(Nc3ncc(Cl)c(Nc4cccnc4N4CCCC4=O)n3)cc2Cl)CC1 [Example No. 29, 1-(3-((5-chloro-2-((5-chloro-2-methoxy-4-(4-(methyl-d3)piperazin-1-yl)phenyl)amino)pyrimidin-4-yl)amino)pyridin-2-yl)pyrrolidin-2-one]
IC50 (TNK1 [1]): < 5 nM

COc1cc(N2CCN(C)CC2)c(C)cc1Nc1ncc(Cl)c(Nc2cccnc2N(C)C)n1 [compound 6, 5-chloro-N^4-(2-(dimethylamino)pyridin-3-yl)-N^2-(2-methoxy-5-methyl-4-(4-methylpiperazin-1-yl)phenyl)pyrimidine-2,4-diamine]
IC50 (TNK1 [1]): < 5 nM | IC50 [2]: 5 to 50 nM | IC50 (TNK1 [3]): 150 to 1000 nM

COc1cc(N2CCN(CCO)CC2)c(Cl)cc1Nc1ncc(Cl)c(Nc2cccnc2N2CCCC2=O)n1 [compound 30, 1-(3-((5-chloro-2-((5-chloro-4-(4-(2-hydroxyethyl)piperazin-1-yl)-2-methoxyphenyl)amino)pyrimidin-4-yl)amino)pyridin-2-yl)pyrrolidin-2-one]
IC50 (TNK1 [1]): < 5 nM

From US11529350B2, “Tyrosine kinase non-receptor 1 (TNK1) inhibitors and uses thereof” (Sumitomo Pharma Oncology, Inc., priority 2019, dated 2022)
